We go through five compounds from patent publication US12600725B2 (Memorial Sloan-Kettering Cancer Center, priority 2013, dated 2026).

“Also recorded” adds a separate entry of the source. Read-outs that look alike come from different tables or passages of the source.

One data set deals with C2C12 cells. The data set is described as follows: Viability of C2C12 cells visualized by light microscopy. The data set is classed as cell-based, mouse. To be noted: 24 h.
Data set [1] concerns IGF-II secretion by differentiated C2C12 cells. As to the kind of experiment: C2C12 differentiation and IGF-II secretion assay. The data set is classed as cell-based, mouse. To be noted: 24 hrs treatment. From the text:
C2C12 differentiation and IGF-II secretion assay (Wanderling, S. et al. GRP94 is essential for mesoderm induction and muscle development because it regulates insulin-like growth factor secretion. Mol. Biol. Cell 18, 3764-75 (2007); Ostrovsky, O., Ahmed, N.T. & Argon, Y. The chaperone activity of GRP94 toward insulin-like growth factor II is necessary for the stress response to serum deprivation. Mol. Biol. Cell 20, 1855-64 (2009)). C2C12 cells were maintained and cultured in DMEM in the presence of 10% FBS and 1% penicillin/streptomycin (Culture medium). C2C12 is an immortal line of mouse skeletal myoblasts originally derived from satellite cells from the thigh muscle of a two month old female mouse donor. These cells differentiate well into myocytes under appropriate culture conditions. […] Secreted IGF-II was quantified by using IGF-II mouse ELISA kit (Abcam, AB100696) according to the manufacturer's instructions. […] The bound IGF-II was detected with a biotinylated anti-IGF-II antibody. After the sequential incubation with HRP conjugated streptavidin, TMB One-step substrate reagent and the Stop solution, the absorbance was measured at 450 nm. The secreted IGF-II was quantified against a standard curve generated with recombinant IGF-II provided by the kit.

The test system of data set [2] is HER2 at the plasma membrane of SKBr3 cells. As to the kind of experiment: Immunofluorescence of HER2 architecture at the plasma membrane. Type of data set: cell-based. On the procedure: We next investigated the biological significance of the unique association of HER^2 with Grp94 at the plasma membrane of SKBr3 cells. Because the Grp94 inhibitors described here target the ATP-binding pocket of Grp94, they affect Grp94 chaperone activity. Therefore we hypothesized that Grp94 may act on HER^2 at the plasma membrane to stabilize the protein and to regulate its function.
Immunofluorescence. Cells were seeded and grown onto culture slides (BD Falcon) for 24 hrs. After washing with cold PBS, cells were fixed by treating at 4° C. for 20 min with 4% paraformaldehyde in PBS, permeabilized with 0.1% Triton X-100 in PBS containing 10% FBS for 10 min, and blocked with 2% BSA for 1 hr. After washing for four times with PBS, primary antibodies were added onto the chambers and cell were incubated overnight at 4° C., washed again with PBS followed by incubation with the secondary antibody for 1 hr at room temperature. Cell were washed and then mounted and observed under microscope (Leica Upright Confocal SP5). The primary antibodies used in the assay are against: HER^2 (Zymed, 28004), Grp94 (Stressgen, SPA-850), Hsp70 (Stressgen, SPA-810), LAMP1-FITC (Abcam, ab25406), EEA1 (Abcam, ab70521), 58K Golgi-FITC (Abcam, ab27043) and Calnexin (BD, 610523).

For data set [3], the system named is Hsp70 induction and AKT degradation (cytosolic Hsp90 hallmarks) in C2C12 cells. The data set is described as follows: Western blot of Hsp70 induction and AKT degradation in C2C12 cells. To be noted: 24 hrs. Type of data set: cell-based, mouse. Background: In western blotting, separated proteins are transferred to a membrane and probed.
Experimental: Cell fractionation and immunoblotting. Cells were either treated with DMSO (vehicle) or indicated compounds for 24 hr and lysed in RIPA buffer (50 mM Tris-HCl, pH 7.4, 150 mM NaCl, 0.5% sodium deoxycholate and 0.5% NP40) supplemented with cocktail protease inhibitors (Roche) to produce whole cell lysates. Lysates for cytosol and membrane fractions were harvested using ProteoExtract Subcellular Proteome Extraction Kit (Calbiochem) following the manufacturer's instructions. Protein concentrations were determined using BCA kit (Pierce) according to the manufacturer's instructions. […] After washing off the excess antibodies, the membranes were incubated with the corresponding horseradish peroxidase (HRP) conjugated secondary antibody. Blots were visualized by autoradiography using the Enhanced Chemiluminescence Detection System (GE Healthcare) according to manufacturer's instructions. For all gels 3-actin was used as a protein loading control.
The subject of data set [4] is Hsp70 induction in HEK293 cells. The data set is described as follows: Hsp70 induction in HA-TLR9 transfected HEK293 cells. Type of data set: cell-based, human. To be noted: 24 h. As for the experimental part:
Cell fractionation and immunoblotting. Cells were either treated with DMSO (vehicle) or indicated compounds for 24 hr and lysed in RIPA buffer (50 mM Tris-HCl, pH 7.4, 150 mM NaCl, 0.5% sodium deoxycholate and 0.5% NP40) supplemented with cocktail protease inhibitors (Roche) to produce whole cell lysates. Lysates for cytosol and membrane fractions were harvested using ProteoExtract Subcellular Proteome Extraction Kit (Calbiochem) following the manufacturer's instructions. Protein concentrations were determined using BCA kit (Pierce) according to the manufacturer's instructions. The protein lysates ([…]) were electrophoretically resolved by SDS-PAGE, transferred onto nitrocellulose membranes and probed with the indicated primary antibodies against: HER^2 (Zymed, 28004), Hsp70 (Stressgen, SPA-810), Grp94 (Stressgen, SPA-850), Hsp90α (Abcam, Ab2928), Hsp90β (StressMarq, SMC-107B), Grp78 (Cell Signaling, 3183), Raf-1 (Santa Cruz, sc-133), phospho-Raf-1 (Cell Signaling, 9421), MEK1/2 (Cell Signaling, 8727), phospho-MEK1/2 (Cell Signaling, 9154), ERK1/2 (Cell Signaling, 4695), phospho-ERK1/2 (Cell Signaling, 4370), AKT (Cell Signaling, 9272), GM130 (Cell Signaling, 2296), Flotillin 2 (Cell Signaling, 3436), Histone H4 (Cell Signaling, 2592), Histone H1 (Santa Cruz, sc-8030), Caspase 3 (Cell Signaling, 9665), cleaved PARP (Promega, G7341), a-tubulin (Sigma, T5168) and 3-actin (Sigma, A1978). After washing off the excess antibodies, the membranes were incubated with the corresponding horseradish peroxidase (HRP) conjugated secondary antibody. Blots were visualized by autoradiography using the Enhanced Chemiluminescence Detection System (GE Healthcare) according to manufacturer's instructions. […]
TLR^9-trafficking assay (Yang, Y. et al. Heat shock protein gp96 is a master chaperone for toll-like receptors and is important in the innate function of macrophages. Immunity 26, 215-26 (2007)). […] Fluorescence intensity was quantified using MetaMorph Microscopy Automation and Image Analysis Software (Molecular Devices Inc.) and normalized to the cell number.

Data set [5] has as its system Toll-like receptor 9 (TLR9) trafficking in HEK293 cells transfected with HA-TLR9. As to the kind of experiment: TLR9-trafficking assay. Type of data set: cell-based, human. To be noted: 24 h treatment. As for the experimental part: TLR^9-trafficking assay (Yang, Y. et al. Heat shock protein gp96 is a master chaperone for toll-like receptors and is important in the innate function of macrophages. Immunity 26, 215-26 (2007)). HEK 293T cells were transfected with pUNO-hTLR9-HA (Invivogen) using X-tremgene HP (Roche) according to the manufacturer's instructions. At 24 hrs post-transfection, cells were split onto cell culture chamber slides (Lab-Tek). Cells were then treated for 24 hrs with indicated compound at varying concentrations. After treatment, cells were fixed for 20 min in 4% paraformaldehyde in PBS, permeabilized with 0.1% Triton-X 100 in PBS for 10 min, blocked with 3% BSA in PBS for 30 min, followed by staining for 1 hr with an anti-HA antibody (Abcam, ab9110) or a normal rabbit IgG. Cells were washed with PBS, stained with an anti-rabbit-Cy3 antibody (Invitrogen) and finally mounted in the dark at 4° C. with Prolong Gold Antifade reagent (with DAPI). Cells were visualized under a confocal microscope (Leica Upright Confocal SP5). Fluorescence intensity was quantified using MetaMorph Microscopy Automation and Image Analysis Software (Molecular Devices Inc.) and normalized to the cell number.

The test system of another data set is PANC-1 cells. As to the kind of experiment: Apoptosis assessment (Annexin V / 7AAD). The data set is classed as cell-based. From the text: Annexin V Apoptosis with 7-AAD has been specifically designed for the identification of apoptotic and necrotic cells. Annexin V (or Annexin A5) is a member of the annexin family of intracellular proteins that binds to phosphatidylserine (PS) in a calcium-dependent manner. PS is normally only found on the intracellular leaflet of the plasma membrane in healthy cells, but during early apoptosis, membrane asymmetry is lost and PS translocates to the external leaflet. Fluorochrome-labeled Annexin V can then be used to specifically target and identify apoptotic cells. Annexin V binding alone cannot differentiate between apoptotic and necrotic cells. To help distinguish between the necrotic and apoptotic cells 7-amino-actinomycin D (7-AAD) is used. Early apoptotic cells will exclude 7-AAD, while late stage apoptotic cells will stain positively, due to the passage of these dyes into the nucleus where they bind to DNA. 7-AAD (7-amino-actinomycin D) has a high DNA binding constant and is efficiently excluded by intact cells. It is useful for DNA analysis and dead cell discrimination during flow cytometric analysis. When excited by 488 laser light, 7-AAD fluorescence is detected in the far red range of the spectrum (650 nm long-pass filter).
Cell cycle and apoptosis assessment. Cell cycle and apoptosis were assessed by flow cytometry after single staining with propidium iodide (PI, BD Pharmingen) or double staining with AnnexinV-FITC (BD Pharmingen) and 7AAD (BD Pharmingen), respectively. Specifically, for cell cycle analysis, cells were washed twice with cold PBS and fixed in 70% ethanol overnight at 4° C. Fixed cells were collected at 1800 rpm for 10 min and stained with PBS containing PI and DNase-free RNase A (Sigma-Aldrich) for 1 h at room temperature in the dark. DNA content was measured by BD LSRII flow cytometer and cell further analyzed using program of cell cycle analysis in FloJo (Ashland, OR). The chicken erythrocyte nuclei singlets (CEN, Biosure) were used as the reference. For apoptosis assessment, live cells were collected, washed twice with cold PBS, resuspended in Binding Buffer and stained with AnnexinV-FITC and 7AAD for 15 min at room temperature in the dark. Signals from FL1 and FL3 channels were collected by MACSQuant analyzer and further analyzed using FloJo. Early apoptosis was defined as AnnexinV+/7AAD−, and late apoptosis was observed as AnnexinV+/7AAD+.

The test system of the next data set is 97 kinases. The data set is described as follows: Kinase screen (Discoverx scanEDGE / KINOMEscan). The data set is classed as binding. To be noted: tested at 10 uM.
Data set [6] concerns the target T1, Hsp90α (Homo sapiens, UniProt P07900). The data set is described as follows: biochemical.
The target in another data set is T2, Trap-1 (Homo sapiens, UniProt Q12931).
T2 sequence (Q12931 60-704): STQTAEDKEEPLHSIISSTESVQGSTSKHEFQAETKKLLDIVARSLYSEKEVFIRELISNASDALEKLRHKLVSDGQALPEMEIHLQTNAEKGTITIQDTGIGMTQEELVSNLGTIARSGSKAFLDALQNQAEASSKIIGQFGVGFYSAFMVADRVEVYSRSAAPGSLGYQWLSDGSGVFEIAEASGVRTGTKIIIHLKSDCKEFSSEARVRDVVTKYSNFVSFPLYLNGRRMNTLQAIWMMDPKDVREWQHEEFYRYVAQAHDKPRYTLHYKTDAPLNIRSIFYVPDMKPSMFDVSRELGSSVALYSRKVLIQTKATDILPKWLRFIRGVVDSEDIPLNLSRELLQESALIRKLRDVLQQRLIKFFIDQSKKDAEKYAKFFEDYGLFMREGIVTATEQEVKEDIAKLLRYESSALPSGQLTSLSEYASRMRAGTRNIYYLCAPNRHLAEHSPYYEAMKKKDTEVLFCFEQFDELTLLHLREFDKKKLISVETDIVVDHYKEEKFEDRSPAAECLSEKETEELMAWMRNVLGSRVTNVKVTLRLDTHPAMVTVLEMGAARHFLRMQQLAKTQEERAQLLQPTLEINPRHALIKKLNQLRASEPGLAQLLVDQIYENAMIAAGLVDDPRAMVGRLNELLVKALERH
To be noted: read-out: TRAP-1.

Another data set has as its target Grp94 (Canis lupus familiaris, UniProt P41148). To be noted: read-out: Grp94; FP competition, 6 nM Cy3B-GM, 10 nM protein, 4° C. for 24 h.
The next data set concerns the target Hsp90β (Homo sapiens, UniProt P08238).
For data set [7], the system named is TLR9 ligand CpG DNA induced TNF-α production in RAW 264.7 macrophages. The data set is described as follows: TNFα ELISA, CpG DNA stimulated macrophages. The data set is classed as cell-based, mouse. In general terms: An ELISA detects its analyte on a solid surface through an enzyme-linked reagent.
Data set [8] addresses T1, Hsp90α.
Data set [9] concerns Human Umbilical Vein Endothelial Cells (HUVECs). As to the kind of experiment: Angiogenesis studies with HUVEC cells. Type of data set: cell-based.
In data set [10] the test system is PANC1 EGFR-overexpressing cells. To be noted: Mol Cancer Ther 2006; 5:2051-2059; cited from earlier work.

Chain of Hsp90β (P08238 whole entry): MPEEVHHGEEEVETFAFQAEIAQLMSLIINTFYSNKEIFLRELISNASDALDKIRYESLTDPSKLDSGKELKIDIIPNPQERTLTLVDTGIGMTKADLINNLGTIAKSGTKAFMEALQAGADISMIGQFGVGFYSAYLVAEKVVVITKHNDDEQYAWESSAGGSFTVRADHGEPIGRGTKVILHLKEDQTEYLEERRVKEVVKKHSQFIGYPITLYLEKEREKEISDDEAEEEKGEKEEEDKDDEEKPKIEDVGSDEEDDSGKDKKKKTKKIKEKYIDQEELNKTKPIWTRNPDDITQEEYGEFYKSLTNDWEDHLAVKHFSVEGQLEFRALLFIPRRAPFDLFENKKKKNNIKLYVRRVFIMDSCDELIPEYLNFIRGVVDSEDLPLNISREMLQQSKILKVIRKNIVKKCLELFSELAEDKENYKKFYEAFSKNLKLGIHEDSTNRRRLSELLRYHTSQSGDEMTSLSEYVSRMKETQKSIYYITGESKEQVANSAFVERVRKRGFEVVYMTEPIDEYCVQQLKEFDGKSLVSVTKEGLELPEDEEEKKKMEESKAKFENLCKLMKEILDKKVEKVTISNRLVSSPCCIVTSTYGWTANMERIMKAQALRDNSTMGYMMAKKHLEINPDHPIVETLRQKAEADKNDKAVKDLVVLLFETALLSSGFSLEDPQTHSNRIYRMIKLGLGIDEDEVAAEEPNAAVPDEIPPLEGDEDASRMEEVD
Chain of Grp94 (P41148 with tags, fused parts or gaps DELINS287-327GGGG): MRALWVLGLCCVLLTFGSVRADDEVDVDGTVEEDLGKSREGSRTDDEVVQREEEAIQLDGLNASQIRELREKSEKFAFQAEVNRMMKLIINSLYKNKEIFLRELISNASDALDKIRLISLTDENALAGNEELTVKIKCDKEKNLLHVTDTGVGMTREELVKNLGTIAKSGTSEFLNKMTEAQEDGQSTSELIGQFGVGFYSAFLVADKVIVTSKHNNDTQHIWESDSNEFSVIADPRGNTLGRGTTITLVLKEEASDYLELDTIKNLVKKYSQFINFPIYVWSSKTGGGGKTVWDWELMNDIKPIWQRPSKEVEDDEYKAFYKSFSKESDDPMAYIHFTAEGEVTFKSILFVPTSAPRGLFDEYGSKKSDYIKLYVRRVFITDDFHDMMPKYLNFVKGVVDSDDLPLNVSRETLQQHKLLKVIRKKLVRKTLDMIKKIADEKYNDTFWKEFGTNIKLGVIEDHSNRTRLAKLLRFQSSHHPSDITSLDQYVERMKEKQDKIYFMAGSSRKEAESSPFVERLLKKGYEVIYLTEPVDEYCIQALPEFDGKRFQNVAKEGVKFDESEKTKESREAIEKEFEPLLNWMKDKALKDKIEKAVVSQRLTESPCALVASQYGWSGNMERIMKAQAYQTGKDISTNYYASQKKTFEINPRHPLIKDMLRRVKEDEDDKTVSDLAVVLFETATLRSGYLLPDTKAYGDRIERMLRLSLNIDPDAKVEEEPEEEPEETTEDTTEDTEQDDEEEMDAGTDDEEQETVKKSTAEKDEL

For the compound `COC1=C2C[C@@H](C)C[C@H](OC)[C@H](O)[C@@H](C)/C=C(\C)[C@H](OC(N)=O)[C@@H](OC)/C=C\C=C(/C)C(=O)NC(=CC1=O)C2=O` [GM, geldanamycin, reference compound], in the data set on C2C12 cells, the “toxicity to C2C12 cells” value was “cell killing”.
`COc1cc(Cc2nc3c(N)nc(F)nc3n2CCOC(C)C)cc(OC)c1OC` [PU-29F]: in data set [1], the IGF-II secretion result is “minimally effecting”. The “effect on HER2 architecture at the plasma membrane” value in data set [2] is given as “failed to disturb the membrane HER^2 architecture”. The AKT degradation result in data set [3] is reported as “degradation of AKT; also recorded: degrade AKT”. Further, the Hsp70 induction result in data set [3] is given as “dose-dependent increase in Hsp90 levels; also recorded: induce Hsp70”; in [4] it was “induces Hsp70”. The TLR9 trafficking result in data set [5] is given as “minimally effecting; also recorded: fails to inhibit TLR^9 trafficking”. Further, the induction of apoptosis entry in the data set on PANC-1 cells is “very little effect”.
`C#CCCCn1c(Sc2ccc(Cl)cc2Cl)nc2c(N)ncnc21` [PU-H39]: in the data set on 97 kinases, the “effect on the tested 97 kinases” value is listed as “no significant effect”. Moreover, the IC50 at Hsp90α [6] (FP competition, 6 nM Cy3B-GM, 10 nM protein, 4° C. for 24 h) was greater than 300 µM; at Trap-1, 145 ± 13.4 µM; on Grp94 it was 0.12 ± 0.04 µM; against Hsp90β, greater than 300 µM.
In the case of `C#CCCCn1cnc(N)c2nc(Sc3ccc(C)cc3C)nc1-2` [PU-H54], the IC50 against Hsp90α [6] was greater than 250 µM; at Trap-1 it was 54.1 ± 4.6 µM; against Hsp90β it was greater than 250 µM. Besides, the “CpG DNA induced TNF-α production” value in data set [7] was “inhibited this response in a concentration dependent manner; also recorded: inhibit”. Besides, the “affinity for Hsp90” value at Hsp90α [8] is reported as “low affinity”. Also, the HUVEC cell proliferation result in data set [9] was “does not affect substantially the cell proliferation”. Further, in data set [9], the “angiogenic-like transformation of HUVECs induced by Grp94 and by peak 2” value is on record as “able to change the angiogenic-like transformation of HUVECs; also recorded: displays an anti-angiogenic effect; also recorded: inhibited”.
As to `C#Cc1cccc(Nc2ncnc3cc(OCCOC)c(OCCOC)cc23)c1` [erlotinib], in [10], the “reported resistance of PANC1 cells” value was “resistant”.
